Consider ten compounds from US10344060B2 (priority 2013, dated 2019).

The IC50 is the concentration needed to halve the response being measured.

Each structure is given as a SMILES string.

The assay has as its target hNav1.7 (Homo sapiens, UniProt Q15858). Put plainly: cell-based. It counts as cell-based. The note with it: for IC50: Table 12, PatchXpress, tonic block, read-out: PX hNav1.7 Tonic IC50; for Nav1.4/Nav1.7 / Nav1.5/Nav1.7: ratio of PX tonic IC50 values, Table 11.

Chain of hNav1.7 (Q15858 whole entry): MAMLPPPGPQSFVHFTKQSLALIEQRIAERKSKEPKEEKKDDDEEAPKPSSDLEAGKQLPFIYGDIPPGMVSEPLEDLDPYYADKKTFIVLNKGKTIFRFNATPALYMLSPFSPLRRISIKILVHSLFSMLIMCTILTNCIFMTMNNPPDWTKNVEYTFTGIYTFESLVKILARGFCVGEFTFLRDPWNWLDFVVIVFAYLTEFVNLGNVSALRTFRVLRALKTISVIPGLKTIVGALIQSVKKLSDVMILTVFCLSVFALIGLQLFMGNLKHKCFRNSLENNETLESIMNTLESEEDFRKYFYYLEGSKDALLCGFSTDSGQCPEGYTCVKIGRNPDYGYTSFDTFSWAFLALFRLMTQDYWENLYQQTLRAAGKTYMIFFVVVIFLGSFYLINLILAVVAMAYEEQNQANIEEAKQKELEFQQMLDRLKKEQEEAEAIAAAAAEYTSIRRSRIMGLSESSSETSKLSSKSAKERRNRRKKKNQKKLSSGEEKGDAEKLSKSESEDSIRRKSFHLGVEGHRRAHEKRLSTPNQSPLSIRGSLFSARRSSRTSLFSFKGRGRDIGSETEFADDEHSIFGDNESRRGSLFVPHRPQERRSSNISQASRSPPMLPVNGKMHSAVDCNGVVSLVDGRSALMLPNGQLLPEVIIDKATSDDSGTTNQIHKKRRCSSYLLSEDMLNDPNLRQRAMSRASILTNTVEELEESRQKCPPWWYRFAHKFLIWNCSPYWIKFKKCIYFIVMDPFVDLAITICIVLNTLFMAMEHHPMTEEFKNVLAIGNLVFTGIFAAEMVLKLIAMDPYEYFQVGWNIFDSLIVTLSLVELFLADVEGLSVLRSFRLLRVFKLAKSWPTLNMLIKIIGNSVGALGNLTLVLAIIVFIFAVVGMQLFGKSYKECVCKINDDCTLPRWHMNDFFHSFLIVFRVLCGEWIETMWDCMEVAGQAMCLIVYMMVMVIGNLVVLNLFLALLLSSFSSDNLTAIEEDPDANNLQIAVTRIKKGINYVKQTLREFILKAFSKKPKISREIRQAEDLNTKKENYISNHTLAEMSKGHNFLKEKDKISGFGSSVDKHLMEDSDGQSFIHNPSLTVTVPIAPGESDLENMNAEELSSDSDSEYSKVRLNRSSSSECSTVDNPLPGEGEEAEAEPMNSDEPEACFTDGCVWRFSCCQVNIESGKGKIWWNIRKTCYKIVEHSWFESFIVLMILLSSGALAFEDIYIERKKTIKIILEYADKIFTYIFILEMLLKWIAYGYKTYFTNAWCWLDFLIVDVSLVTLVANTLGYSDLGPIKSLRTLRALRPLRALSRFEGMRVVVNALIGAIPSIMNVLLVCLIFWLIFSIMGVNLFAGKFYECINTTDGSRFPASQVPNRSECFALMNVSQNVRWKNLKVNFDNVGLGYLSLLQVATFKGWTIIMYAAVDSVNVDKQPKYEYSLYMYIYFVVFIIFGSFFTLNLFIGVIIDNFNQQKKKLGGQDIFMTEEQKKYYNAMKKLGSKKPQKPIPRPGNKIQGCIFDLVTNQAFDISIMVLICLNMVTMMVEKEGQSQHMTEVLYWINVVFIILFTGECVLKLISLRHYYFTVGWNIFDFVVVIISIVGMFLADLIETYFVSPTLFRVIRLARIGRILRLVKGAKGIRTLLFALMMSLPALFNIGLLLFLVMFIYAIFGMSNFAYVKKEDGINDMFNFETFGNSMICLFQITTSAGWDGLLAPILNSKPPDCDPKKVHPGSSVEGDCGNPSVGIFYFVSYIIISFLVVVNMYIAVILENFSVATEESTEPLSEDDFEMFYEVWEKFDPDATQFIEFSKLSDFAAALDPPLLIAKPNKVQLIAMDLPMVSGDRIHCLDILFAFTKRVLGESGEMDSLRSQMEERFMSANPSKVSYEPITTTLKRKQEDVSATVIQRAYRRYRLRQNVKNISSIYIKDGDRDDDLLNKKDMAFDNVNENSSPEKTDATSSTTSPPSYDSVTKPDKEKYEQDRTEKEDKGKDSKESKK

Turning to `C#CC[C@@H]1NC(=O)[C@@H]2CSSC[C@H](NC(=O)[C@@H](N)CC#N)C(=O)N[C@@H](CCC(N)=O)C(=O)N[C@@H](CCCCN)C(=O)N[C@@H](Cc3c[nH]c4ccccc34)C(=O)N[C@@H](CCCC)C(=O)N[C@@H](Cc3c[nH]c4ccccc34)C(=O)N[C@@H]([C@@H](C)O)C(=O)N[C@H]3CSSC[C@H](NC(=O)[C@H](CCCNC(=N)N)NC(=O)[C@H](CC(C)C)NC(=O)CNC1=O)C(=O)N[C@@H](CCC(N)=O)C(=O)N[C@@H](CC(C)C)C(=O)N[C@@H](Cc1c[nH]c4ccccc14)C(=O)N[C@H](C(=O)N[C@@H](CCCNC(=N)N)C(=O)N[C@@H](CCCCN)C(=O)N[C@@H](CCC(=O)O)C(=O)N[C@H](C(N)=O)[C@@H](C)CC)CSSC[C@H](NC(=O)[C@H](C)NC(=O)[C@H](CCCNC(=N)N)NC(=O)[C@H](CCCCN)NC(=O)[C@H](CO)NC(=O)[C@H](CC(=O)O)NC3=O)C(=O)N2` [compound 1680], the IC50 came out at 47.6 nM. Regarding `CCCC[C@@H]1NC(=O)[C@H](Cc2c[nH]c3ccccc23)NC(=O)[C@H](CCCCN)NC(=O)[C@H](CCC(N)=O)NC(=O)[C@@H](NC(=O)[C@H](Cc2ccc(O)cc2)NC(=O)[C@H](N)CC(C)C)CSSC[C@@H]2NC(=O)[C@@H]3CSSC[C@@H](C(=O)N[C@@H](CCCNC(=N)N)C(=O)N[C@@H](CCCCN)C(=O)N[C@H](C(=O)N[C@H](C(N)=O)[C@@H](C)CC)[C@@H](C)CC)NC(=O)[C@H](Cc4c[nH]c5ccccc45)NC(=O)[C@H](CC(C)C)NC(=O)[C@H](CCCCN)NC(=O)[C@H](CSSC[C@H](NC(=O)[C@H]([C@@H](C)O)NC(=O)[C@H](Cc4c[nH]c5ccccc45)NC1=O)C(=O)N[C@@H](CC(=O)O)C(=O)N[C@@H](CO)C(=O)N[C@@H](CCCCN)C(=O)N[C@@H](CCCNC(=N)N)C(=O)N[C@@H](C)C(=O)N3)NC(=O)[C@H](CCCNC(=N)N)NC(=O)[C@H](CC(C)C)NC(=O)CNC(=O)[C@H](CCC(=O)O)NC2=O` [compound 373], the Nav1.4/Nav1.7 is on record as 190 and the Nav1.5/Nav1.7 is recorded as 2704. The like results for `CCCC[C@@H]1NC(=O)[C@H](Cc2c[nH]c3ccccc23)NC(=O)[C@H](CCCCN)NC(=O)[C@H](CCC(N)=O)NC(=O)[C@@H](NC(=O)[C@H](Cc2ccc(O)cc2)NC(=O)[C@@H](N)CCc2ccccc2)CSSC[C@@H]2NC(=O)[C@@H]3CSSC[C@@H](C(=O)N[C@@H](CCCNC(=N)N)C(=O)N[C@@H](CCCCN)C(=O)N[C@H](C(=O)N[C@H](C(N)=O)[C@@H](C)CC)[C@@H](C)CC)NC(=O)[C@H](Cc4c[nH]c5ccccc45)NC(=O)[C@H](CC(C)C)NC(=O)[C@H](CCCCN)NC(=O)[C@H](CSSC[C@H](NC(=O)[C@H]([C@@H](C)O)NC(=O)[C@H](Cc4c[nH]c5ccccc45)NC1=O)C(=O)N[C@@H](CC(=O)O)C(=O)N[C@@H](CO)C(=O)N[C@@H](CCCCN)C(=O)N[C@@H](CCCNC(=N)N)C(=O)N[C@@H](C)C(=O)N3)NC(=O)[C@H](CCCNC(=N)N)NC(=O)[C@H](CC(C)C)NC(=O)CNC(=O)[C@H](CCC(=O)O)NC2=O` [compound 379] were, in that order, 10 and 916. Consider `C#CC[C@H](N)C(=O)N[C@@H](Cc1ccc(O)cc1)C(=O)N[C@H]1CSSC[C@@H]2NC(=O)[C@@H]3CSSC[C@@H](C(=O)N[C@@H](CCCNC(=N)N)C(=O)N[C@@H](CCC(=O)O)C(=O)N[C@@H](CCC(=O)O)C(=O)N[C@H](C(N)=O)[C@@H](C)CC)NC(=O)[C@H](Cc4c[nH]c5ccccc45)NC(=O)[C@H](CC(C)C)NC(=O)[C@H](CCCCN)NC(=O)[C@H](CSSC[C@H](NC(=O)[C@H]([C@@H](C)O)NC(=O)[C@H](Cc4c[nH]c5ccccc45)NC(=O)[C@H](CCCC)NC(=O)[C@H](Cc4c[nH]c5ccccc45)NC(=O)[C@H](CCCCN)NC(=O)[C@H](CCC(N)=O)NC1=O)C(=O)N[C@@H](CC(=O)O)C(=O)N[C@@H](CO)C(=O)N[C@@H](CCCCN)C(=O)N[C@@H](CCCNC(=N)N)C(=O)N[C@@H](C)C(=O)N3)NC(=O)[C@H](CCCNC(=N)N)NC(=O)[C@H](CC(C)C)NC(=O)CNC(=O)[C@H](CCC(=O)O)NC2=O` [compound 725], for which the IC50 is > 10000 nM.

For `CCCC[C@@H]1NC(=O)[C@H](Cc2c[nH]c3ccccc23)NC(=O)[C@H](CCCCN)NC(=O)[C@H](CCC(N)=O)NC(=O)[C@@H](NC(=O)[C@H](Cc2ccc(O)cc2)NC(=O)[C@H](CCC)NC(=O)[C@H](N)CC(C)C)CSSC[C@@H]2NC(=O)[C@@H]3CSSC[C@@H](C(=O)N[C@@H](CCCNC(=N)N)C(=O)N[C@@H](CCCCN)C(=O)N[C@@H](CCC(=O)O)C(=O)N[C@H](C(N)=O)[C@@H](C)CC)NC(=O)[C@H](Cc4c[nH]c5ccccc45)NC(=O)[C@H](CC(C)C)NC(=O)[C@H](CCCCN)NC(=O)[C@H](CSSC[C@H](NC(=O)[C@H]([C@@H](C)O)NC(=O)[C@H](Cc4c[nH]c5ccccc45)NC1=O)C(=O)N[C@@H](CC(=O)O)C(=O)N[C@@H](CO)C(=O)N[C@@H](CCCCN)C(=O)N[C@@H](CCCNC(=N)N)C(=O)N[C@@H](CCCCNC(=O)CCOCCOCCOCCOCCOCCOCCOCCOCCOCCOCCOCCOCCN)C(=O)N3)NC(=O)[C@H](CCCNC(=N)N)NC(=O)[C@H](CC(C)C)NC(=O)CNC(=O)[C@H](CCC(=O)O)NC2=O` [compound 472], the Nav1.4/Nav1.7 is reported as 42 and the Nav1.5/Nav1.7 turned out to be 349. In the case of `CCCC[C@@H]1NC(=O)[C@H](Cc2c[nH]c3ccccc23)NC(=O)[C@H](CCCCN)NC(=O)[C@H](CCC(N)=O)NC(=O)[C@@H](NC(=O)[C@H](Cc2ccc(O)cc2)NC(=O)[C@H](CC(C)C)NC)CSSC[C@@H]2NC(=O)[C@@H]3CSSC[C@@H](C(=O)N[C@@H](CCCNC(=N)N)C(=O)N[C@@H](CCCCN)C(=O)N[C@@H](CCC(=O)O)C(=O)N[C@H](C(N)=O)[C@@H](C)CC)NC(=O)[C@H](Cc4c[nH]c5ccccc45)NC(=O)[C@H](CC(C)C)NC(=O)[C@H](CCCCN)NC(=O)[C@H](CSSC[C@H](NC(=O)[C@H]([C@@H](C)O)NC(=O)[C@H](Cc4c[nH]c5ccccc45)NC1=O)C(=O)N[C@@H](CC(=O)O)C(=O)N[C@@H](CO)C(=O)N[C@@H](CCCCN)C(=O)N[C@@H](CCCNC(=N)N)C(=O)N[C@@H](C)C(=O)N3)NC(=O)[C@H](CCCNC(=N)N)NC(=O)[C@H](CC(C)C)NC(=O)CNC(=O)[C@H](CCCCNC(=O)CCOCCOCCOCCOCCOCCOCCOCCOCCOCCOCCOCCOCCN)NC2=O` [compound 466], the Nav1.4/Nav1.7 was determined as 19.

Regarding `CCCC[C@@H]1NC(=O)[C@H](Cc2c[nH]c3ccccc23)NC(=O)[C@H](CCCCN)NC(=O)[C@H](CCC(N)=O)NC(=O)[C@@H](NC(=O)[C@H](Cc2ccc(O)cc2)NC(=O)CCN)CSSC[C@@H]2NC(=O)[C@@H]3CSSC[C@@H](C(=O)N[C@@H](CCCNC(=N)N)C(=O)N[C@@H](CCCCN)C(=O)N[C@H](C(=O)N[C@H](C(N)=O)[C@@H](C)CC)[C@@H](C)CC)NC(=O)[C@H](Cc4c[nH]c5ccccc45)NC(=O)[C@H](CC(C)C)NC(=O)[C@H](CCCCN)NC(=O)[C@H](CSSC[C@H](NC(=O)[C@H]([C@@H](C)O)NC(=O)[C@H](Cc4c[nH]c5ccccc45)NC1=O)C(=O)N[C@@H](CC(=O)O)C(=O)N[C@@H](CO)C(=O)N[C@@H](CCCCN)C(=O)N[C@@H](CCCNC(=N)N)C(=O)N[C@@H](C)C(=O)N3)NC(=O)[C@H](CCCNC(=N)N)NC(=O)[C@H](CC(C)C)NC(=O)CNC(=O)[C@H](CCC(=O)O)NC2=O` [compound 376], the Nav1.4/Nav1.7 was determined as 3 and the Nav1.5/Nav1.7 amounted to 731. `CCCC[C@@H]1NC(=O)[C@H](Cc2c[nH]c3ccccc23)NC(=O)[C@H](CCCCN)NC(=O)[C@H](CCC(N)=O)NC(=O)[C@@H](NC(=O)[C@H](Cc2ccc(O)cc2)NC(=O)[C@@H](N)CC#N)CSSC[C@@H]2NC(=O)[C@@H]3CSSC[C@@H](C(=O)N[C@@H](CCCNC(=N)N)C(=O)N[C@@H](CCCCN)C(=O)N[C@@H](CCC(=O)O)C(=O)N[C@H](C(N)=O)[C@@H](C)CC)NC(=O)[C@H](Cc4c[nH]c5ccccc45)NC(=O)[C@H](CC(C)C)NC(=O)[C@H](CCCCN)NC(=O)[C@H](CSSC[C@H](NC(=O)[C@H]([C@@H](C)O)NC(=O)[C@H](Cc4c[nH]c5ccccc45)NC1=O)C(=O)N[C@@H](CC(=O)O)C(=O)N[C@@H](CO)C(=O)N[C@@H](CCCCNC(=O)CCOCCOCCOCCOCCOCCOCCOCCOCCOCCOCCOCCOCCN)C(=O)N[C@@H](CCCNC(=N)N)C(=O)N[C@@H](C)C(=O)N3)NC(=O)[C@H](CCCNC(=N)N)NC(=O)[C@H](CC(C)C)NC(=O)CNC(=O)[C@H](CCC(=O)O)NC2=O` [compound 566]: the Nav1.4/Nav1.7 stood at 103.

For the compound `CCCC[C@@H]1NC(=O)[C@H](Cc2c[nH]c3ccccc23)NC(=O)[C@H](CCCCN)NC(=O)[C@H](CCC(N)=O)NC(=O)[C@@H](NC(=O)[C@H](Cc2ccc(O)cc2)NC(=O)[C@@H](N)CC#N)CSSC[C@@H]2NC(=O)[C@@H]3CSSC[C@@H](C(=O)N[C@@H](CCCNC(=N)N)C(=O)N[C@@H](CCCCN)C(=O)N[C@@H](CCC(=O)O)C(=O)N[C@H](C(N)=O)[C@@H](C)CC)NC(=O)[C@H](Cc4c[nH]c5ccccc45)NC(=O)[C@H](CC(C)C)NC(=O)[C@H](CCCCN)NC(=O)[C@H](CSSC[C@H](NC(=O)[C@H]([C@@H](C)O)NC(=O)[C@H](Cc4c[nH]c5ccccc45)NC1=O)C(=O)N[C@@H](CC(=O)O)C(=O)N[C@@H](CO)C(=O)N[C@@H](CCCCN)C(=O)N[C@@H](CCCNC(=N)N)C(=O)N[C@@H](C)C(=O)N3)NC(=O)[C@H](CCCNC(=N)N)NC(=O)[C@H](CC(C)C)NC(=O)CNC(=O)[C@H](CCCCNC(=O)CCOCCOCCOCCOCCOCCOCCOCCOCCOCCOCCOCCOCCN)NC2=O` [compound 456], the Nav1.4/Nav1.7 came to 68 and the Nav1.5/Nav1.7 is recorded as 967. For the compound `C#CC[C@H](N)C(=O)N[C@@H](Cc1ccc(O)cc1)C(=O)N[C@H]1CSSC[C@@H]2NC(=O)[C@@H]3CSSC[C@@H](C(=O)N[C@@H](CCCNC(=N)N)C(=O)N[C@@H](CCCCN)C(=O)N[C@@H](CCC(=O)O)C(=O)N[C@H](C(N)=O)[C@@H](C)CC)NC(=O)[C@H](Cc4c[nH]c5ccccc45)NC(=O)[C@H](CC(C)C)NC(=O)[C@H](CCCCN)NC(=O)[C@H](CSSC[C@H](NC(=O)[C@H]([C@@H](C)O)NC(=O)[C@H](Cc4c[nH]c5ccc(Br)cc45)NC(=O)[C@H](CCCC)NC(=O)[C@H](Cc4c[nH]c5ccccc45)NC(=O)[C@H](CCCCN)NC(=O)[C@H](CCC(N)=O)NC1=O)C(=O)N[C@@H](CC(=O)O)C(=O)N[C@@H](CO)C(=O)N[C@@H](CCCCN)C(=O)N[C@@H](CCCNC(=N)N)C(=O)N[C@@H](C)C(=O)N3)NC(=O)[C@H](CCCNC(=N)N)NC(=O)[C@H](CC(C)C)NC(=O)CNC(=O)[C@H](CCC(=O)O)NC2=O` [compound 850], the IC50 worked out at 540 nM.
